Measured values reported in US9738677B2, “Amphotericin B derivative with reduced toxicity” (priority 2014, dated 2017).

Tests used:
yeast [1] = conditions: previously found; cited from earlier work
renal cells = assay type: cell-based, human
Description: Cells were imaged using an AMG (Bothell, Wash.) EVOS fl Microscope. Images were taken using transmitted light at 10× objective.
(18) Due to the limited solubility of AmB and its derivatives in the renal cell media, 80 μM is the highest concentration we were able to study. At higher concentrations, the aggregate blocks the light path of the plate reader, giving false high absorbance readings.

[2] = previously found; cited from earlier work
[3] = previously found; cited from earlier work; remark: listed apart in the source
[4] = test system: primary human renal proximal tubule epithelial cells; assay: WST-8 cell proliferation assay (MTC); assay type: cell-based
Description: WST-8 Cell Proliferation Assays
Primary human renal proximal tubule epithelial cells (RPTECs) were purchased from ATCC (Manassas, Va.) and immediately cultured upon receipt. Complete growth media was prepared using renal epithelial cell basal medium (ATCC, PCS-400-030), renal epithelial cell growth kit (ATCC, PCS-400-040), and penicillin-streptomycin (10 units/mL and 10 μg/mL). Complete media was stored at 4° C. in the dark and used within 28 days. Primary RPTECs were grown in CO2 incubator at 37° C. with an atmosphere of 95% air/5% CO2.
WST-8 cell proliferation assay kit (Ser. No. 10/010,199) was purchased from Cayman Chemical Company (Ann Arbor, Mich.) and stored at −20° C. and used within 6 months of receipt. WST-8 reagent and electron mediator solution were thawed and mixed to prepare the WST-8 reagent solution. The solution was stored at −20° C. and used within one week.
A suspension of primary RPTECs in complete growth media was brought to a concentration of 1×10^5 cells/mL. A 96-well plate was seeded with 99 μL of the cell suspension and incubated at 37° C. with an atmosphere of 95% air/5% CO2 for 3 hours. Positive and negative controls were prepared by seeding with 100 μL of the cell suspension or 100 μL of the complete media. Compounds were prepared as 5 mM (AmB), 20 mM (C2′deOAmB), and 50 mM (C2′epiAmB) stock solutions in DMSO and serially diluted to the following concentrations with DMSO: 50000, 40000, 30000, 20000, 10000, 8000, 6000, 4000, 3000, 2000, 1500, 1000, 800, 600, 400, 300, 200, 100, 50, 25, 10, 5, 2.5, 1, 0.5, 0.25, and 0.1 μM. 1 μL aliquots of each solution were added to the 96-well plate in triplicate, with each column representing a different concentration of the test compound. The 96-well plate was incubated at 37° C. with an atmosphere of 95% air/5% CO2 for 24 hours. […] Following incubation, the 96-well plate was mixed in a shaking incubator at 200 rpm for 1 minute and absorbances were read at 450 nm using a Biotek H1 Synergy Hybrid Reader (Wanooski, Vt.). […]

[5] = ITC sterol binding, POPC LUVs containing 10% cholesterol; conditions: within the limits of the binding assay
Description: (§1) Isothermal Titration calorimetry (ITC)
(§2) In an optimized isothermal titration calorimetry (ITC)-based assay, an aqueous solution of AmB was titrated with a suspension of large unilamellar vesicles (LUVs) comprised of only 1-palmitoyl-2-oleoyl-sn-glycero-3-phosphocholine (POPC), and the net exotherm was recorded. The titration was repeated using POPC LUVs containing 10% ergosterol. […] The titration was repeated using C2′epiAmB. […] The ITC assay was also conducted with cholesterol in place of ergosterol.
(§3) Experiments were performed using a NanoITC isothermal titration calorimeter (TA Instruments, Wilmington, Del.). Solutions of the compounds to be tested were prepared by diluting a 60.0 mM stock solution of the compound in DMSO to 600 μM with K buffer (5.0 mM HEPES/KHEPES, pH=7.4). The final DMSO concentration in the solution was 1% v/v. Large unilamellar vesicles comprised of only 1-palmitoyl-2-oleoyl-sn-glycero-3-phosphocholine (POPC LUVs) were prepared and phosphorus and ergosterol content was quantified as described below. The LUV solutions were diluted with buffer and DMSO to give a final phospholipid concentration of 12.0 mM in a 1% DMSO/K buffer solution. Immediately prior to use, all solutions were incubated at 37° C. for 30 minutes and degassed under vacuum at 37° C. for 10 minutes. The reference cell of the instrument (volume=0.190 mL) was filled with a solution of 1% v/v DMSO/K buffer.
Palmitoyl oleoyl phosphatidylcholine (POPC) was obtained as a 20 mg/mL solution in CHCl3 from Avanti Polar Lipids (Alabaster, Ala.) and was stored at −20° C. under an atmosphere of dry argon and used within 1 month. A 4 mg/mL solution of ergosterol in CHCl3 was prepared monthly and stored at 4° C. under an atmosphere of dry argon. […]
NanoAnalyze software (TA Instruments) was used for baseline determination and integration of the injection heats, and Microsoft Excel was used for subtraction of dilution heats and the calculation of overall heat evolved. […] By this method, the overall heat evolved during the experiment was calculated using the following formula: […]

[6] = ITC sterol binding, POPC LUVs containing 10% ergosterol; conditions: net exotherm vs sterol-free LUVs
Description: as §1, §2, §3
Palmitoyl oleoyl phosphatidylcholine (POPC) was obtained as a 20 mg/mL solution in CHCl3 from Avanti Polar Lipids (Alabaster, Ala.) and was stored at −20° C. under an atmosphere of dry argon and used within 1 month. […]
Ergosterol content was determined spectrophotometrically. […] The solutions were then analyzed by UV/Vis spectroscopy and the concentration of ergosterol in solution was determined by the extinction coefficient of 10400 L mol^−1 cm^−1 at the UVmax of 282 nm and was compared to the concentration of phosphorus to determine the percent sterol content. The extinction coefficient was determined independently in the above ternary solvent system. […]

human red blood cells = assay: Minimum hemolysis concentration (MHC) assay; assay type: cell-based; conditions: concentration causing 90% hemolysis of human red blood cells, 2 hours, 37° C.
Description: The protocol for the hemolysis assay was adapted from the report of Paquet and coworkers. […] Whole human blood (sodium heparin) was purchased from Bioreclamation LLC (Westbury, N.Y.) and stored at 4° C. and used within two days of receipt. To a 2.0 mL Eppendorf tube, 1 mL of whole human blood was added and centrifuged at 10,000 g for 2 minutes. The supernatant was removed and the erythrocyte pellet was washed with 1 mL of sterile saline and centrifuged at 10,000 g for 2 minutes. The saline wash was repeated for a total of three washes. The erythrocyte pellet was suspended in 1 mL of RBC buffer (10 mM NaH2PO4, 150 mM NaCl, 1 mM MgCl2, pH 7.4) to form the erythrocyte stock suspension.
Positive and negative controls were prepared by adding 1 μL of DMSO to MilliQ water or RBC buffer, respectively to 0.2 mL PCR tube. To each PCR tube, 0.63 μL of the erythrocyte stock suspension was added and mixed by inversion. The samples were incubated at 37° C. for 2 hours. The samples were mixed by inversion and centrifuged at 10,000 g for 2 minutes. 15 μL of the supernatant from each sample was added to a 384-well place. Absorbances were read at 540 nm using a Biotek H1 Synergy Hybrid Reader (Wanooski, Vt.). Experiments were performed in triplicate and the reported MHC represents an average of three experiments.
Percent hemolysis was determined according to the following equation:
[formula] […]

healthy mice = assay: Acute toxicity, single intravenous administration, lethality; assay type: in vivo, mouse; conditions: healthy mice, single intravenous 4 mg/kg
Description: FIG. 8 is a graph depicting lethality in healthy mice resulting from single intravenous administrations in the doses indicated of AmB or C2′epiAmB.
In a separate experiment, acute toxicity was determined by single intravenous administration of AmB or C2′epiAmB to healthy mice, followed by monitoring for lethality.

yeast [7] = conditions: reported by Carreira and coworkers; cited from earlier work
[8] = Chol-containing POPC liposomes, 1 μM; cited from earlier work

C[C@@H]1[C@H](O)[C@@H](C)C=CC=CC=CC=CC=CC=CC=C[C@H](O)C[C@@H]2O[C@](O)(C[C@@H](O)C[C@@H](O)[C@H](O)CC[C@@H](O)C[C@@H](O)CC(=O)O[C@H]1C)C[C@H](O)[C@H]2C(=O)O [AmdeB, amphoteronolide B]
Toxicity to yeast (previous work) (yeast [1]): non-toxic to yeast
Visual evidence of toxicity in microscope images of renal cells (renal cells): no visual evidence of toxicity
Capacity to bind cholesterol (previous work) [2]: eliminates its capacity to bind both ergosterol and cholesterol
Capacity to bind ergosterol (previous work) [3]: eliminates its capacity to bind both ergosterol and cholesterol

C[C@@H]1[C@H](O)[C@@H](C)/C=C/C=C/C=C/C=C/C=C/C=C/C=C/[C@H](O[C@H]2C[C@@H](N)[C@H](O)[C@@H](C)O2)C[C@@H]2O[C@](O)(C[C@@H](O)C[C@@H](O)[C@H](O)CC[C@@H](O)C[C@@H](O)CC(=O)O[C@H]1C)C[C@H](O)[C@H]2C(=O)O [C2′deOAmB]
Toxicity to primary human renal proximal tubule epithelial cells (in words) ([4]; up to limits of solubility): no evidence of toxicity up to their limits of solubility
Visual evidence of toxicity in microscope images of renal cells (renal cells): no visual evidence of toxicity
Binding to cholesterol (in words) [5]: do not bind cholesterol

C[C@@H]1[C@H](O)[C@@H](C)/C=C/C=C/C=C/C=C/C=C/C=C/C=C/[C@H](O[C@@H]2O[C@H](C)[C@@H](O)[C@H](N)[C@@H]2O)C[C@@H]2O[C@](O)(C[C@@H](O)C[C@@H](O)[C@H](O)CC[C@@H](O)C[C@@H](O)CC(=O)O[C@H]1C)C[C@H](O)[C@H]2C(=O)O [AmB, amphotericin B]
Binding to ergosterol (in words) [6]: significant increase in net exotherm
MHC (minimum hemolytic concentration) (human red blood cells): 8.5 µM
MTC (minimum toxic concentration) ([4]; concentration causing 90% loss of cell viability, primary human RPTECs, 24 hours): 2.4 µM
Lethality (healthy mice): died within seconds

COC(=O)[C@H]1[C@@H]2C[C@@H](O[C@@H]3O[C@H](C)[C@@H](O)[C@H](N)[C@H]3O)/C=C/C=C/C=C/C=C/C=C/C=C/C=C/[C@H](C)[C@@H](O)[C@@H](C)[C@H](C)OC(=O)C[C@H](O)C[C@H](O)CC[C@@H](O)[C@H](O)C[C@H](O)C[C@](O)(C[C@@H]1O)O2 [C2′epiAmE, C2′epiAmB methyl ester]
Potency in yeast MIC assays compared to AmB (yeast [7]): equipotent to AmB
Efflux of potassium ions [8]: caused efflux of potassium ions
